Data from patent US8410097B2 (priority 2005, dated 2013).
Like-named read-outs stand apart in the source and are kept apart here.

Legend:
CB1 cannabinoid receptor = biological target: T1, CB1 cannabinoid receptor (Rattus norvegicus, UniProt P20272); experiment: biochemical; type: binding; settings: for Ki: rat forebrain membranes; for Selectivity CB1: CB1 over CB2 binding selectivity (ratio of Ki)
T1 construct: membranes were prepared from rat forebrain membranes; from tissue; host or cells: rat forebrain membranes
Protocol: Some of the inventive analogs were tested for CB2 receptor binding affinity and for CB1 receptor affinity (to determine selectivity). […] The lower the Ki value the higher the binding affinity. […]
Membranes, previously frozen at −80° C., were thawed on ice. To the stirred suspension was added three volumes of TME (25 mM Tris-HCl buffer, 5 mM MgCl2 and 1 mM EDTA) at a pH 7.4. The suspension was incubated at 4° C. for 30 min. At the end of the incubation, the membranes were pelleted and washed three times with TME.
(§1) The treated membranes were subsequently used in the binding assay described below. Approximately 30 μg of membranes were incubated in silanized 96-well microtiter plate with TME containing 0.1% essentially fatty acid-free bovine serum albumin (BSA), 0.8 nM [^3H] […] Radioactivity was detected using MicroScint 20 scintillation cocktail added directly to the dried filterplates, and the filterplates were counted using a Packard Instruments Top-Count. […] Data collected from three independent experiments performed with duplicate determinations was normalized between 100% and 0% specific binding for [^3H] […] The normalized data was analyzed using a 4-parameter nonlinear logistic equation to yield IC50 values.

CB2 cannabinoid receptor = CB2 cannabinoid receptor (Mus musculus, UniProt P47936); experiment: biochemical; type: binding; settings: mouse spleen membranes
Protocol: Some of the inventive analogs were tested for CB2 receptor binding affinity and for CB1 receptor affinity (to determine selectivity). […] The lower the Ki value the higher the binding affinity.
as §1
Silanized centrifuge tubes were used throughout to minimize receptor loss due to adsorption. The CB2 binding assay was conducted in the same manner as for the CB1 binding assay. The binding affinities (Ki) were also expressed in nanomoles (nM).

[1] = CB1 Ki, Table 6, 0.8 nM [3H] CP-55,940
[2] = Table 6, [3H] CP-55,940, read-out: CB2 Ki
[3] = Receptor Affinities Ki (nM) CB1, Table 10
[4] = Table 10, read-out: Receptor Affinities Ki (nM) CB2
[5] = CB2 Ki, Table 6, [3H] CP-55,940
[6] = Table 6, 0.8 nM [3H] CP-55,940, read-out: CB1 Ki
[7] = CB1 Ki, Table 7, 0.8 nM [3H] CP-55,940
[8] = Table 7, [3H] CP-55,940, read-out: CB2 Ki
[9] = Receptor Affinities Ki (nM) CB1, Table 8
[10] = Table 8, read-out: Receptor Affinities Ki (nM) CB2
[11] = Receptor Affinities Ki (nM) CB1, Table 9
[12] = Table 9, read-out: Receptor Affinities Ki (nM) CB2

T1 sequence (P20272 whole entry): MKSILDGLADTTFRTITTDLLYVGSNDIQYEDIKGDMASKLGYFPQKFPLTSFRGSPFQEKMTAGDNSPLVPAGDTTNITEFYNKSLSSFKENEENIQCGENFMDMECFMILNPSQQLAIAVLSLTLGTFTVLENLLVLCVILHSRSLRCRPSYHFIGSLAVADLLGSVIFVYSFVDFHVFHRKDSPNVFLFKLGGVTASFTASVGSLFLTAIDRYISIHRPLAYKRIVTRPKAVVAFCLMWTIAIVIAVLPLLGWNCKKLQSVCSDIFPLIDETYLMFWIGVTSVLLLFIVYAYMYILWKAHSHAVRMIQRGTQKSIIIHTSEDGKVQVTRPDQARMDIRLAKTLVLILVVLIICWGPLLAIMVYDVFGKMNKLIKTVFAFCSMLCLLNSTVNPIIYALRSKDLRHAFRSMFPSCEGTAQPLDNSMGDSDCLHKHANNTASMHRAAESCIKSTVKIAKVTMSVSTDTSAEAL
Chain of CB2 cannabinoid receptor (P47936 whole entry): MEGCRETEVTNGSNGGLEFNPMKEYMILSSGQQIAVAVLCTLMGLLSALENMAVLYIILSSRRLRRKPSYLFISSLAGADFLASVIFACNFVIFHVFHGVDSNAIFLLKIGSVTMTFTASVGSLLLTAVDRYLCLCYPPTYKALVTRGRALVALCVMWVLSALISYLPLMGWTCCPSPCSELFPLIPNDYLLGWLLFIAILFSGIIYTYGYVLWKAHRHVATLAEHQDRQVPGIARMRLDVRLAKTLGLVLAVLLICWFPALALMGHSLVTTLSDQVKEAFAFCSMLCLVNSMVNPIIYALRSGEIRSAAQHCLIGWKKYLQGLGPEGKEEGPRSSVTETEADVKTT

CN(C(=O)Nc1nc(-c2ccc(Cl)cc2Cl)n(-c2ccc(Br)cc2)c1CO)C1CCCCC1 [Compound 1-40]
Ki (CB1 cannabinoid receptor; [1]): 10 nM | Ki (CB2 cannabinoid receptor; [2]): 1020 nM

Cc1c(C(=O)NN2CCCCC2)nn(-c2ccc(Cl)cc2Cl)c1-c1ccc(C#CCN)cc1.Cl [Compound 5-5]
Ki (CB1 cannabinoid receptor; [3]): 30 nM | Selectivity CB1 (CB1 cannabinoid receptor; Table 10): 1 | Ki (CB2 cannabinoid receptor; [4]): 30 nM

Cc1c(C(=O)NN2CCCCC2)nc(-c2ccc(Cl)cc2Cl)n1-c1ccc(Br)cc1 [Compound 1-2]
Ki (CB1 cannabinoid receptor; [1]): 11.5 nM | Ki (CB2 cannabinoid receptor; [5]): 462 nM

Cc1c(C(=O)NN2CCCCC2)nc(-c2ccc(Cl)cc2Cl)n1-c1ccc(-c2nnnn2C)cc1 [Compound 1-17]
Ki (CB1 cannabinoid receptor; [6]): 2290 nM | Ki (CB2 cannabinoid receptor; [2]): 24500 nM

Cc1c(C(=O)NN2CCCCC2)nc(-c2ccc(Cl)cc2Cl)n1-c1ccc(-c2nnn(C)n2)cc1 [Compound 1-18]
Ki (CB1 cannabinoid receptor; [1]): 6.5 nM | Ki (CB2 cannabinoid receptor; [2]): 5080 nM

Cc1c(C(=O)NN2CCCCC2)nn(-c2ccc(Cl)cc2Cl)c1-c1ccc(C#CCCN)cc1 [Compound 5-13]
Ki (CB1 cannabinoid receptor; [3]): 20 nM | Selectivity CB1 (CB1 cannabinoid receptor; Table 10): 36 | Ki (CB2 cannabinoid receptor; [4]): 732 nM

Cn1nnc(-c2ccc(-n3c(-c4ccc(Cl)cc4Cl)nc(C(=O)NN4CCCCC4)c3CO)cc2)n1 [Compound 1-21]
Ki (CB1 cannabinoid receptor; [1]): 10.5 nM | Ki (CB2 cannabinoid receptor; [2]): 539 nM

Cc1c(C(=O)N(C)C2CCCCC2)nc(-c2ccc(Cl)cc2Cl)n1-c1ccc(-c2nnnn2C)cc1 [Compound 1-23]
Ki (CB1 cannabinoid receptor; [1]): 982 nM | Ki (CB2 cannabinoid receptor; [5]): 4150 nM

Cc1c(C(=O)NN2CCCCC2)nc(-c2ccc(Cl)cc2Cl)n1-c1ccc(C#CCCC#N)cc1 [Compound 1-33]
Ki (CB1 cannabinoid receptor; [1]): 1.6 nM | Ki (CB2 cannabinoid receptor; [2]): 271 nM

O=C(NN1CCCCC1)c1nc(-c2ccc(Cl)cc2Cl)n(-c2ccc(-c3cccnc3)cc2)c1CO [Compound 1-15]
Ki (CB1 cannabinoid receptor; [1]): 23 nM | Ki (CB2 cannabinoid receptor; [2]): 2780 nM

Cc1c(C(=O)NN2CCCCC2)nn(-c2ccc(Cl)cc2Cl)c1-c1ccc(C#CCO)cc1 [Compound 2-1, 1-(2,4-Dichloro-phenyl)-5-[4-(3-hydroxy-prop-1-ynyl)-phenyl]-4-methyl-1H-pyrazole-3-carboxylic acid piperidin-1-ylamide]
Ki (CB1 cannabinoid receptor; [7]): 33.1 nM | Ki (CB2 cannabinoid receptor; [8]): 1490 nM

N#Cc1ccc(-n2c(-c3ccc(Cl)cc3Cl)nc(C(=O)NN3CCCCC3)c2CO)cc1 [Compound 1-9]
Ki (CB1 cannabinoid receptor; [1]): 51 nM | Ki (CB2 cannabinoid receptor; [2]): 5460 nM

O=C(NN1CCCCC1)c1nn(-c2ccc(Cl)cc2Cl)c(-c2ccc(C#CCCO)cc2)c1CO [Compound 3-2]
Ki (CB1 cannabinoid receptor; [9]): 16 nM | Selectivity CB1 (CB1 cannabinoid receptor; Table 8): 10 | Ki (CB2 cannabinoid receptor; [10]): 165 nM

Cc1c(C(=O)NN2CCCCC2)nn(-c2ccc(Cl)cc2Cl)c1-c1ccc(C#CCCCCO)cc1 [Compound 3-7]
Ki (CB1 cannabinoid receptor; [9]): 3 nM | Selectivity CB1 (CB1 cannabinoid receptor; Table 8): 39 | Ki (CB2 cannabinoid receptor; [10]): 116 nM

Cc1c(C(=O)NN2CCCCC2)nn(-c2ccc(Cl)cc2Cl)c1-c1ccc(C#CCN)cc1 [Compound 5-4]
Ki (CB1 cannabinoid receptor; [3]): 21 nM | Selectivity CB1 (CB1 cannabinoid receptor; Table 10): 2 | Ki (CB2 cannabinoid receptor; [4]): 40 nM

O=C(NN1CCCCC1)c1nn(-c2ccc(Cl)cc2Cl)c(-c2ccc(CCCO)cc2)c1CO [Compound 4-6]
Ki (CB1 cannabinoid receptor; [11]): 21 nM | Selectivity CB1 (CB1 cannabinoid receptor; Table 9): 3 | Ki (CB2 cannabinoid receptor; [12]): 66 nM

CN(C(=O)c1nc(-c2ccc(Cl)cc2Cl)n(-c2ccc(-c3nnn[nH]3)cc2)c1CO)C1CCCCC1 [Compound 1-25]
Ki (CB1 cannabinoid receptor; [6]): 5210 nM | Ki (CB2 cannabinoid receptor; [2]): 858 nM

Cc1c(C(=O)NN2CCCCC2)nn(-c2ccc(Cl)cc2Cl)c1-c1ccc(C#Cc2cccnc2)cc1 [Compound 5-10]
Ki (CB1 cannabinoid receptor; [3]): 15 nM | Selectivity CB1 (CB1 cannabinoid receptor; Table 10): 3.6 | Ki (CB2 cannabinoid receptor; [4]): 54 nM

Cn1nnnc1-c1ccc(-n2c(-c3ccc(Cl)cc3Cl)nc(C(=O)NN3CCCCC3)c2CO)cc1 [Compound 1-20]
Ki (CB1 cannabinoid receptor; [6]): 400 nM | Ki (CB2 cannabinoid receptor; [2]): 12300 nM

CN(C(=O)c1nc(-c2ccc(Cl)cc2Cl)n(-c2ccc(I)cc2)c1CO)C1CCCCC1 [Compound 1-11]
Ki (CB1 cannabinoid receptor; [1]): 6.4 nM | Ki (CB2 cannabinoid receptor; [2]): 1150 nM

Cc1c(C(=O)NN2CCCCC2)nn(-c2ccc(Cl)cc2Cl)c1-c1ccc(C#CCN(C)C)cc1 [Compound 5-1]
Ki (CB1 cannabinoid receptor; [3]): 51 nM | Selectivity CB1 (CB1 cannabinoid receptor; Table 10): 1.5 | Ki (CB2 cannabinoid receptor; [4]): 76 nM

Cc1c(C(=O)NN2CCCCC2)nc(-c2ccc(Cl)cc2Cl)n1-c1ccc(C#CCO)cc1 [Compound 1-31]
Ki (CB1 cannabinoid receptor; [1]): 18 nM | Ki (CB2 cannabinoid receptor; [2]): 1140 nM

Cc1c(C(=O)N(C)C2CCCCC2)nc(-c2ccc(Cl)cc2Cl)n1-c1ccc(C#CCCO)cc1 [Compound 3-8]
Ki (CB1 cannabinoid receptor; [9]): 12 nM | Selectivity CB1 (CB1 cannabinoid receptor; Table 8): 36 | Ki (CB2 cannabinoid receptor; Receptor Affinities Ki (nM) CB2, Table 8): 440 nM

O=C(NN1CCCCC1)c1nc(-c2ccc(Cl)cc2Cl)n(-c2ccc(Br)cc2)c1CO [Compound 1-4]
Ki (CB1 cannabinoid receptor; [1]): 10.8 nM | Ki (CB2 cannabinoid receptor; [5]): 319 nM

Cc1c(NC(=O)NC2CCCCC2)nc(-c2ccc(Cl)cc2Cl)n1-c1ccc(I)cc1 [Compound 1-36]
Ki (CB1 cannabinoid receptor; [1]): 1.2 nM | Ki (CB2 cannabinoid receptor; [2]): 7240 nM

Cc1c(C(=O)NN2CCCCC2)nn(-c2ccc(Cl)cc2Cl)c1-c1ccc(C#CCNC(=O)OC(C)(C)C)cc1 [Compound 5-2]
Ki (CB1 cannabinoid receptor; [3]): 68 nM | Selectivity CB1 (CB1 cannabinoid receptor; Table 10): 1.3 | Ki (CB2 cannabinoid receptor; [4]): 88 nM

Cc1c(C(=O)NN2CCCCC2)nn(-c2ccc(Cl)cc2Cl)c1-c1ccc(CCC#N)cc1 [Compound 4-4]
Ki (CB1 cannabinoid receptor; [11]): 13 nM | Selectivity CB1 (CB1 cannabinoid receptor; Table 9): 176 | Ki (CB2 cannabinoid receptor; [12]): 2290 nM

O=C(NC1CCCCC1)c1nc(-c2ccc(Cl)cc2Cl)n(-c2ccc(Br)cc2)c1CO [Compound 1-10]
Ki (CB1 cannabinoid receptor; [1]): 4.6 nM | Ki (CB2 cannabinoid receptor; [2]): 3030 nM

[N-]=[N+]=NCc1c(C(=O)NN2CCCCC2)nc(-c2ccc(Cl)cc2Cl)n1-c1ccc(Br)cc1 [Compound 1-41]
Ki (CB1 cannabinoid receptor; [1]): 7 nM | Ki (CB2 cannabinoid receptor; [2]): 954 nM

Cc1cc(Br)ccc1-n1c(-c2ccc(Cl)cc2Cl)nc(C(=O)NN2CCCCC2)c1CO [Compound 1-3]
Ki (CB1 cannabinoid receptor; [1]): 54.7 nM | Ki (CB2 cannabinoid receptor; [2]): 803 nM

Cc1c(C(=O)NN2CCCCC2)nn(-c2ccc(Cl)cc2Cl)c1-c1ccc(C#Cc2ccncc2)cc1 [Compound 5-12]
Ki (CB1 cannabinoid receptor; [3]): 8 nM | Selectivity CB1 (CB1 cannabinoid receptor; Table 10): 52 | Ki (CB2 cannabinoid receptor; [4]): 421 nM

Cc1c(C(=O)NN2CCCCC2)nc(-c2ccc(Cl)cc2Cl)n1-c1ccc(-c2nnn[nH]2)cc1 [Compound 1-16]
Ki (CB1 cannabinoid receptor; [6]): 404 nM | Ki (CB2 cannabinoid receptor; [2]): 10700 nM

Cc1c(C(=O)NN2CCCCC2)nc(-c2ccc(Cl)cc2Cl)n1-c1ccc(-c2cccnc2)cc1 [Compound 1-14]
Ki (CB1 cannabinoid receptor; [1]): 39.8 nM | Ki (CB2 cannabinoid receptor; [2]): 3330 nM

Cc1c(C(=O)NN2CCCCC2)nc(-c2ccc(Cl)cc2Cl)n1-c1ccc(-c2nccs2)cc1 [Compound 1-28]
Ki (CB1 cannabinoid receptor; [1]): 7.7 nM | Ki (CB2 cannabinoid receptor; [2]): 656 nM

O=C(NN1CCCCC1)c1nc(-c2ccc(Cl)cc2Cl)n(-c2ccc(I)cc2)c1CO [Compound 1-7]
Ki (CB1 cannabinoid receptor; [1]): 1.5 nM | Ki (CB2 cannabinoid receptor; [2]): 1650 nM

Cc1c(C(=O)N2CCCCC2)nc(-c2ccc(Cl)cc2Cl)n1-c1ccc(Br)cc1 [Compound 1-13]
Ki (CB1 cannabinoid receptor; [1]): 22 nM | Ki (CB2 cannabinoid receptor; [2]): 2450 nM

Cc1c(C(=O)NN2CC3CCCC3C2)nn(-c2ccc(Cl)cc2Cl)c1-c1ccc(C#CCCO)cc1 (centres unmarked) [Compound 3-6]
Ki (CB1 cannabinoid receptor; [9]): 7 nM | Selectivity CB1 (CB1 cannabinoid receptor; Table 8): 28 | Ki (CB2 cannabinoid receptor; [10]): 199 nM

Cc1c(C(=O)NN2CCCCC2)nn(-c2ccc(Cl)cc2Cl)c1-c1ccc(C#CCCO)cc1 [Compound 2-2]
Ki (CB1 cannabinoid receptor; [7]): 19.7 nM | Ki (CB2 cannabinoid receptor; [8]): 441 nM

Cc1c(C(=O)NN2CCCCC2)nn(-c2ccc(Cl)cc2Cl)c1-c1ccc(C#CCCC#N)cc1 [Compound 2-3]
Ki (CB1 cannabinoid receptor; [7]): 0.35 nM | Ki (CB2 cannabinoid receptor; [8]): 127 nM

O=C(NC1CCCCC1)c1nc(-c2ccc(Cl)cc2Cl)n(-c2ccc(I)cc2)c1CO [Compound 1-12]
Ki (CB1 cannabinoid receptor; [1]): 19 nM | Ki (CB2 cannabinoid receptor; [2]): 22400 nM

Cc1c(C(=O)NN2CCCCC2)nn(-c2ccc(Cl)cc2Cl)c1-c1ccc(C#CCCCO)cc1 [Compound 3-5]
Ki (CB1 cannabinoid receptor; [9]): 2 nM | Selectivity CB1 (CB1 cannabinoid receptor; Table 8): 72 | Ki (CB2 cannabinoid receptor; [10]): 144 nM

Cc1c(NC(=O)N(C)C2CCCCC2)nc(-c2ccc(Cl)cc2Cl)n1-c1ccc(Br)cc1 [Compound 1-37]
Ki (CB1 cannabinoid receptor; [1]): 14.2 nM | Ki (CB2 cannabinoid receptor; [2]): 1420 nM
